Data from US20170190705A1, “Compositions and Methods for Inhibiting BMP” (THE BRIGHAM AND WOMAN'S HOSPITAL, INC., priority 2014, published 2017).

Key:
Format in all cases: biochemical
IKK-β = target: T1, IKK-β (Homo sapiens, UniProt O14920); experiment: Kinome profiling IKK-β; settings: read-out: Inhibitory activity IKK-β; for inhibition at 0.1 µM: 100 nM
T1 sequence (O14920 1-756): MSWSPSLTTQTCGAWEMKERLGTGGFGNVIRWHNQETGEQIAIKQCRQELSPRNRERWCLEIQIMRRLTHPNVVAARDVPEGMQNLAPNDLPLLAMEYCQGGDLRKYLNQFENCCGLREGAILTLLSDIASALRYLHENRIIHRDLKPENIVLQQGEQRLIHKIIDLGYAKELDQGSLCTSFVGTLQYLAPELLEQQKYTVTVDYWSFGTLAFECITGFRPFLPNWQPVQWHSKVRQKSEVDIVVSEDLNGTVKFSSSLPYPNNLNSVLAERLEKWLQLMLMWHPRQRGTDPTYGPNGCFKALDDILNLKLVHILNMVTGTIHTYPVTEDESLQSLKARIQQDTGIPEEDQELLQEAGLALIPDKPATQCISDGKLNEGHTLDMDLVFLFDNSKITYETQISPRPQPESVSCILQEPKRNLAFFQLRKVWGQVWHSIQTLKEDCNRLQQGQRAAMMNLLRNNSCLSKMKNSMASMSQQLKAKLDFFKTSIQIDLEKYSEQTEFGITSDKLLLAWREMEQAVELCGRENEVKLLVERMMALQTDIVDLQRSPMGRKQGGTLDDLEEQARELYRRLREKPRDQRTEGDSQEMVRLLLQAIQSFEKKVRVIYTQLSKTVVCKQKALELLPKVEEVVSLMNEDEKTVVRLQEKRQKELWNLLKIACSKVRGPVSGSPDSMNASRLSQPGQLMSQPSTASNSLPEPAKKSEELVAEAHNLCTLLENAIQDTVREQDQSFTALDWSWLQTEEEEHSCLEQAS
Experimental: (§1) . The kinome-wide selectivity was determined following the methods previously reported by Mohedas et al., ACS Chem Biol 2013, 8, 1291-1302 and Sanvitale et al., PLoS One 2013, 8, e62721.

ARK5 = target: T2, ARK5 (Homo sapiens, UniProt O60285); experiment: Kinome profiling ARK5; settings: read-out: Inhibitory activity ARK5; for inhibition at 0.1 µM: 100 nM
T2 sequence (O60285 1-661): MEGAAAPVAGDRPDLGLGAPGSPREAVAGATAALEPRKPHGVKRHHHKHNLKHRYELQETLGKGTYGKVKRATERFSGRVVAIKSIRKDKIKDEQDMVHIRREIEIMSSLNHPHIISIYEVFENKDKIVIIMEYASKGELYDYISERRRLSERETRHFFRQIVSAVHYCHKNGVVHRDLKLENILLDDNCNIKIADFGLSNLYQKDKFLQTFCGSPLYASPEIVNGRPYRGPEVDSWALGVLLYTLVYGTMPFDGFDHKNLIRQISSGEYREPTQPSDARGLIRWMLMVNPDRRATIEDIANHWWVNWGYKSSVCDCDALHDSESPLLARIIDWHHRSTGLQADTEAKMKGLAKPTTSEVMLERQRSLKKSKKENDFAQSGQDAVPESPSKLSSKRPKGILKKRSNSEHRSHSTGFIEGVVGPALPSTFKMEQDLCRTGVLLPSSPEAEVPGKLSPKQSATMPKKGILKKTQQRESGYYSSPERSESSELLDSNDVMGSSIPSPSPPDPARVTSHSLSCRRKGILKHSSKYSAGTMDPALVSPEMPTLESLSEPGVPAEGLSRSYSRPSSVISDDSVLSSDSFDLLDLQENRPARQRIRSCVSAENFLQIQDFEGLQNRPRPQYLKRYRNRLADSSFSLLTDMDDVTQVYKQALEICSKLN
Experimental: as §1

FER = FER (Homo sapiens, UniProt P16591); experiment: Kinome profiling FER; settings: read-out: Inhibitory activity FER; for inhibition at 0.1 µM: 100 nM
Sequence of FER (P16591 whole entry): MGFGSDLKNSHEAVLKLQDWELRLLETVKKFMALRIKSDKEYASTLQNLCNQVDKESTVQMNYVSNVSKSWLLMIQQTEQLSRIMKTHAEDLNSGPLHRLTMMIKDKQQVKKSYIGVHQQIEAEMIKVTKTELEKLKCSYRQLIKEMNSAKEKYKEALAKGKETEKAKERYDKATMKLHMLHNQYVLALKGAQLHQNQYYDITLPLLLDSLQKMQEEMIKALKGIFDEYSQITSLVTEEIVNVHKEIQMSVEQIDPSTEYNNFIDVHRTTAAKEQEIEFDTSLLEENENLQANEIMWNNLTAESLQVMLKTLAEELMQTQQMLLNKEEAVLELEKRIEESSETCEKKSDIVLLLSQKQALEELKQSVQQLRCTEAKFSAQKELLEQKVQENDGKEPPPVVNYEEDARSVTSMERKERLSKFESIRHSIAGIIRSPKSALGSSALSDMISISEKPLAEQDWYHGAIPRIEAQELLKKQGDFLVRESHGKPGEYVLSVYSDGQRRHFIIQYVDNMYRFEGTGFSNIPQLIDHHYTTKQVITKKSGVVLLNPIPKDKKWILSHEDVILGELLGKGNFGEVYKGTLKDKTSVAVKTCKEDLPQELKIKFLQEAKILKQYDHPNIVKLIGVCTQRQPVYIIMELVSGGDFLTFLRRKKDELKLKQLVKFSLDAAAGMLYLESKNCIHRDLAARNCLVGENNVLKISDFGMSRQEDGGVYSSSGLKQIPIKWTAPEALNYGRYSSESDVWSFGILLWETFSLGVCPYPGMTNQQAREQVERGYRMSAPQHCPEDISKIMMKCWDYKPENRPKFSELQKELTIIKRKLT
Experimental: as §1

PLK1 = PLK1 (Homo sapiens, UniProt P53350); experiment: Kinome profiling PLK1; settings: read-out: Inhibitory activity PLK1; for inhibition at 0.1 µM: 100 nM
Sequence of PLK1 (P53350 whole entry): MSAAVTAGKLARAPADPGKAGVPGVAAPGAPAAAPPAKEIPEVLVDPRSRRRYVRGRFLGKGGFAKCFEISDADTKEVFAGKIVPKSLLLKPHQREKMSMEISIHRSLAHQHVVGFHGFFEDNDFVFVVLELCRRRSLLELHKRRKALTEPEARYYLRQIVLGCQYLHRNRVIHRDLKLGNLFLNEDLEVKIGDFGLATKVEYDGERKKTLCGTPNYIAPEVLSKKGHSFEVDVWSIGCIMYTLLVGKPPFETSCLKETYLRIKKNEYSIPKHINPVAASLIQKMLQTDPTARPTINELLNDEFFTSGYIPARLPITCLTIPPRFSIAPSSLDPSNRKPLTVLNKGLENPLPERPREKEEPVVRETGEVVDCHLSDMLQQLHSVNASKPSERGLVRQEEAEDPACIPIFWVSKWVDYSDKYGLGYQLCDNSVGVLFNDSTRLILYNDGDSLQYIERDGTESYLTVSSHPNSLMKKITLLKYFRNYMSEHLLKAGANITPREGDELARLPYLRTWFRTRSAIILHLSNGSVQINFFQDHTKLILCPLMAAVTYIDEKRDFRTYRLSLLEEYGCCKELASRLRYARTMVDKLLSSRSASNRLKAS
Experimental: as §1

MSSK1 = MSSK1 (Homo sapiens, UniProt Q9UPE1); experiment: Kinome profiling MSSK1; settings: read-out: Inhibitory activity MSSK1; for inhibition at 0.1 µM: 100 nM
Sequence of MSSK1 (Q9UPE1 whole entry): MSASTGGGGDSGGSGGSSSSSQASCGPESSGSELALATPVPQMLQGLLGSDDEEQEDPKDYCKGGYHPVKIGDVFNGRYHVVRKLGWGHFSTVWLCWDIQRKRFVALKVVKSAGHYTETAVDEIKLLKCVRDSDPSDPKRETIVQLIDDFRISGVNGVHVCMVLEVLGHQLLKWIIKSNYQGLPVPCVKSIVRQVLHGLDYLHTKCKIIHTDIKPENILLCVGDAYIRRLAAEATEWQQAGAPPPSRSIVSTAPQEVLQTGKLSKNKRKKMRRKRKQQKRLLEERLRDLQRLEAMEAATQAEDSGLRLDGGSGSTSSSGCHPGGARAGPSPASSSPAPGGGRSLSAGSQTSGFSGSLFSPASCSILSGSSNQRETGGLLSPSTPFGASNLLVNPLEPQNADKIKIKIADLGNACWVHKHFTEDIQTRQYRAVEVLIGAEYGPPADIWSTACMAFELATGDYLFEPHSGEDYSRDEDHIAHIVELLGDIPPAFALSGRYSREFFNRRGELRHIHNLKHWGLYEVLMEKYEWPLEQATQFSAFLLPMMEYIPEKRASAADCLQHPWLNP
Experimental: as §1

PASK = PASK (Homo sapiens, UniProt Q96RG2); experiment: Kinome profiling PASK; settings: read-out: Inhibitory activity PASK; for inhibition at 0.1 µM: 100 nM
Sequence of PASK (Q96RG2 whole entry): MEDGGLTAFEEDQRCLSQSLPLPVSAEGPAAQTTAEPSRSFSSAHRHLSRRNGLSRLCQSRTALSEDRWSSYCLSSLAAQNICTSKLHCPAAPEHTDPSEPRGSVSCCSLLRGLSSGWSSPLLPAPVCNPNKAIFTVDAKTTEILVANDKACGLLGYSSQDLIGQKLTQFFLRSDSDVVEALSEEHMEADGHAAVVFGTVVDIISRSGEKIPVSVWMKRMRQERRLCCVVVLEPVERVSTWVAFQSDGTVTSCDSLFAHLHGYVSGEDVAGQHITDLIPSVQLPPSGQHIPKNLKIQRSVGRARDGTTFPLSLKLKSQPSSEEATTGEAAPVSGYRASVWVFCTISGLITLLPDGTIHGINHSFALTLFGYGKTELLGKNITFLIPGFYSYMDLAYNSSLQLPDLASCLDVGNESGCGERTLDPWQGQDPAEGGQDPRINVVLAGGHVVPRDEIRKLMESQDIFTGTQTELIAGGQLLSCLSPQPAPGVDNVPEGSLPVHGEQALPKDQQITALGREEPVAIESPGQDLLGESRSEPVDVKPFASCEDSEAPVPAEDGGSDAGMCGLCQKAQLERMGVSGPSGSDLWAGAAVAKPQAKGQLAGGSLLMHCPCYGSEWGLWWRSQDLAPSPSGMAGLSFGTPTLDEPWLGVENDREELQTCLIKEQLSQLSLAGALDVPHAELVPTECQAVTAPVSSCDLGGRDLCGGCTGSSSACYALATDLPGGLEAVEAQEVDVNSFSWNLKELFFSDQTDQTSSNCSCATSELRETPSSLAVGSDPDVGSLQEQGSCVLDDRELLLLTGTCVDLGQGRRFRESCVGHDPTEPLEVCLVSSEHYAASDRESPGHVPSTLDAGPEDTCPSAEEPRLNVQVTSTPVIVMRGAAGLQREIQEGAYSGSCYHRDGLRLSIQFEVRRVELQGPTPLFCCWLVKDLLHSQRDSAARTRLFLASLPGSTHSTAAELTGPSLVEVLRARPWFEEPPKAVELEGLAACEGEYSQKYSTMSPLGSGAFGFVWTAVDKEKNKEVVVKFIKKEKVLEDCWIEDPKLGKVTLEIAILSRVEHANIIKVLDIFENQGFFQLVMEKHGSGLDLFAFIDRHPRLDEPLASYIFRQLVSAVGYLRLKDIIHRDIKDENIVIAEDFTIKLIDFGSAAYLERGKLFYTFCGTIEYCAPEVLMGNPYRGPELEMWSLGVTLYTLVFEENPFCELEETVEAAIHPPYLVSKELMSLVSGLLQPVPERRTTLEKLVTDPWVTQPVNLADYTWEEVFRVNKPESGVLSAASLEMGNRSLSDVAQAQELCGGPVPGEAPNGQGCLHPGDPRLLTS
Experimental: as §1

SRPK1 = SRPK1 (Homo sapiens, UniProt Q96SB4); experiment: Kinome profiling SRPK1; settings: read-out: Inhibitory activity SRPK1; for inhibition at 0.1 µM: 100 nM
Sequence of SRPK1 (Q96SB4 whole entry): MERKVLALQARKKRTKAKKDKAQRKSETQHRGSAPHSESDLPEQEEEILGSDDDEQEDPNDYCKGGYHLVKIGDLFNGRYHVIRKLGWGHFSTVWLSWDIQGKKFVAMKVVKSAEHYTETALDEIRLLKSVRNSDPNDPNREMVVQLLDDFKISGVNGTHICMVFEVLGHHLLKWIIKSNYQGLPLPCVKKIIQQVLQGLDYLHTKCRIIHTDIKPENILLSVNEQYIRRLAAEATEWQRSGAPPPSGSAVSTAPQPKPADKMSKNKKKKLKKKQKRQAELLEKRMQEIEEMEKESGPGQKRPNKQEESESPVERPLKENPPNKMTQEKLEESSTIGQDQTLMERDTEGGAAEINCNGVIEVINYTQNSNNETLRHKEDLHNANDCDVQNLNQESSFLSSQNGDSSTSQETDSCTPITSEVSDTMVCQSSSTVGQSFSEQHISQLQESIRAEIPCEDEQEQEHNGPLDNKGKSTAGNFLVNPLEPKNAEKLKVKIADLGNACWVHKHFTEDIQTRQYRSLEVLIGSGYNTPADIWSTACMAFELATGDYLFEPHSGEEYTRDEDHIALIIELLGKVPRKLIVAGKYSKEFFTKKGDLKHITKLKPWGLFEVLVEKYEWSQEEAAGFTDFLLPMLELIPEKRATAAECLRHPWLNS
Experimental: as §1

LYNB = LYNB (Homo sapiens, UniProt P07948); experiment: Kinome profiling LYNB; settings: read-out: Inhibitory activity LYNB; for inhibition at 0.1 µM: 100 nM
Sequence of LYNB (P07948 1-491 isoform P07948-2): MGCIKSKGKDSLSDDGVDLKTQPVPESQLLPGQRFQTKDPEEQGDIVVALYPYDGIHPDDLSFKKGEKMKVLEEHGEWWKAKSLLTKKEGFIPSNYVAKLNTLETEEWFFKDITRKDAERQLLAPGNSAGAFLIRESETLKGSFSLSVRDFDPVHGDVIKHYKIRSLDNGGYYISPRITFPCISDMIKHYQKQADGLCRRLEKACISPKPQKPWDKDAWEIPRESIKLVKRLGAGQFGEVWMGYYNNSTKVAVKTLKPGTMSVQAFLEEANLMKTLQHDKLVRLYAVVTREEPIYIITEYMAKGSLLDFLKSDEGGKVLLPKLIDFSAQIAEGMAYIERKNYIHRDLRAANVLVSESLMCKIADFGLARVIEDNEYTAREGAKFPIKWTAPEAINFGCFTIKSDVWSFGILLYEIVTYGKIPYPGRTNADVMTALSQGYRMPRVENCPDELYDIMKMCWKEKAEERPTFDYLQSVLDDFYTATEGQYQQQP
Experimental: as §1

JNK2 = JNK2 (Homo sapiens, UniProt P45984); experiment: Kinome profiling JNK2; settings: read-out: Inhibitory activity JNK2; for inhibition at 0.1 µM: 100 nM
Sequence of JNK2 (P45984 whole entry): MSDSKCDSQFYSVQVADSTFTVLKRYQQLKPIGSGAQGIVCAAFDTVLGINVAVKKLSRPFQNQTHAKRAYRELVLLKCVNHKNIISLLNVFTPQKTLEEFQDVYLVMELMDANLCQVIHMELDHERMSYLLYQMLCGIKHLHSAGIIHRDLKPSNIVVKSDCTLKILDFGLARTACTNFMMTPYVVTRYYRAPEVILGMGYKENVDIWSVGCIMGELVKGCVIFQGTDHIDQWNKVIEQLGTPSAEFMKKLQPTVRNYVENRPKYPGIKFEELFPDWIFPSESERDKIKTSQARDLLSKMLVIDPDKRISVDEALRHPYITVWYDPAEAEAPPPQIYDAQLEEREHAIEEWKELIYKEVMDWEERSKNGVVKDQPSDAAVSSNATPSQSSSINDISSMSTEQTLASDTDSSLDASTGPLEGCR
Experimental: as §1

SGK3 = target: T3, SGK3 (Homo sapiens, UniProt Q96BR1); experiment: Kinome profiling SGK3; settings: read-out: Inhibitory activity SGK3; for inhibition at 0.1 µM: 100 nM
T3 sequence (Q96BR1 1-496): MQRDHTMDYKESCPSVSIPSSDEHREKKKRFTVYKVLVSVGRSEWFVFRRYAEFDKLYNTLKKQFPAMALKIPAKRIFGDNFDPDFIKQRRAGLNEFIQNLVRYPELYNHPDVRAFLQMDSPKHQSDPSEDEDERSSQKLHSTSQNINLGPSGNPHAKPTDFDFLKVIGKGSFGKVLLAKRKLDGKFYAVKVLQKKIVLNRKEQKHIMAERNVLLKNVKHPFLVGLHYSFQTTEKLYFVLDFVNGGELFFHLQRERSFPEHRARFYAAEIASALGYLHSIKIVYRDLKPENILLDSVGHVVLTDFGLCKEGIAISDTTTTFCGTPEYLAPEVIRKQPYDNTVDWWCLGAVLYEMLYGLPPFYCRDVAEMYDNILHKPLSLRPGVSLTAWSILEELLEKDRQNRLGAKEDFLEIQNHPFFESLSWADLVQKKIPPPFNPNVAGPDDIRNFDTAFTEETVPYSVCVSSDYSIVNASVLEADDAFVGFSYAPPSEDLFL
Experimental: as §1

CDK2/cyclinA = CDK2/cyclinA (Homo sapiens, UniProt P24941); experiment: Kinome profiling CDK2/cyclinA; settings: read-out: Inhibitory activity CDK2/cyclinA; for inhibition at 0.1 µM: 100 nM
Experimental: as §1

Structure (SMILES) | inhibition at 0.1 µM (IKK-β) | inhibition at 1 µM (IKK-β) | inhibition at 0.1 µM (ARK5) | inhibition at 1 µM (ARK5) | inhibition at 0.1 µM (FER) | inhibition at 1 µM (FER) | inhibition at 0.1 µM (PLK1) | inhibition at 1 µM (PLK1) | inhibition at 0.1 µM (MSSK1) | inhibition at 1 µM (MSSK1) | inhibition at 0.1 µM (PASK) | inhibition at 1 µM (PASK) | inhibition at 0.1 µM (SRPK1) | inhibition at 1 µM (SRPK1) | inhibition at 0.1 µM (LYNB) | inhibition at 1 µM (LYNB) | inhibition at 0.1 µM (JNK2) | inhibition at 1 µM (JNK2) | inhibition at 0.1 µM (SGK3) | inhibition at 1 µM (SGK3) | other results
COc1cc(-c2cc(-c3ccc(N4CCNCC4)cc3)cnc2C)cc(OC)c1OC [Compound 10, 1-(4-(6-methyl-5-(3,4,5-trimethoxyphenyl)pyridin-3-yl)phenyl)piperazine] | 2% | 2% | 1% | 1% | 3% | 3% | 4% | 3% | 2% | 2% | 3% | 4% | 2% | 2% | 8% | 30% | 0% | 2% | 3% | 11% | inhibition at 0.1 µM (CDK2/cyclinA): 4%; inhibition at 1 µM (CDK2/cyclinA): 1%
COc1cc(-c2cc(-c3ccc(N4CCNCC4)cc3)cnc2N)cc(OC)c1OC [Compound 15, 5-(4-(piperazin-1-yl)phenyl)-3-(3,4,5-trimethoxyphenyl)pyridin-2-amine] | 1% | 3% | 2% | 8% | 0% | 6% | 3% | 1% | -2% | 0% | 2% | 1% | 1% | -1% | 35% | 82% | 2% | 3% | -8% | 3% | inhibition at 0.1 µM (CDK2/cyclinA): 1%; inhibition at 1 µM (CDK2/cyclinA): 2%
